Test results taken from patent US20060088899A1, “Combination chemotherapy with chlorotoxin” (priority 2002, published 2006).
Read-outs that look alike come from different tables or passages of the source. Ends that are not written are not given here. * marks the point of attachment. Biotin = O=C1N[C@H]2[C@H](CS[C@H]2CCCCC(=O)*)N1

What was measured:
[1] = tested on: PC3 human prostate cancer cells; assay type: binding
Text: In order to compare binding of the short scorpion toxins, the regions homologous to peptide 21 of small toxin and probable toxin LQH-8/6 were synthesized and biotinylated for analysis in the chlorotoxin binding assay (see Table 8 for amino acid sequences of the peptides).

D54-MG = assay: Chemotherapeutic agent cytotoxicity, CCK-8 assay; assay type: cell-based, Human; conditions: two to five days treatment
Experimental: (§1) A tissue culture method was optimized to test the effects of various chemotherapeutic agents on multiple cancer cell lines (see Table 1). Cells were plated on 96-well microtiter tissue culture plates at a density of approximately 1000-2000 cells per well, depending on the specific cell line. Cells were allowed to adhere twenty-four hours in a 37° C., humidified cell culture incubator supplied with five percent carbon dioxide. In order to achieve a dose-response curve for each drug in each cell line, cells were treated with decreasing concentrations of a specific cytotoxic compound for two to five days. Following treatment, the cytotoxic effect of the drug was quantified using the Cell Counting Kit-8 (CCK-8) (Dojindo Inc.) according to the manufacturer's instructions. In brief, following the treatment period with the cytotoxic drug, cells were incubated with CCK-8 reagent and incubated at 37° C. for one to four hours, depending on the specific cell type. After incubation, plates were read on a microplate reader at a wavelength of 490 nm. The IC50 of each drug was calculated from a X-Y scatter plot of the negative log concentration of drug versus mean optical density (Table 2).

SKMEL28 = assay: Chemotherapeutic agent cytotoxicity, CCK-8 assay; assay type: cell-based, Human; conditions: two to five days treatment
Experimental: as §1

U251 = assay: Chemotherapeutic agent cytotoxicity, CCK-8 assay; assay type: cell-based; conditions: Homo sapiens, U-251, 120 h, two to five days treatment
Experimental: as §1

SKMEL31 = assay: Chemotherapeutic agent cytotoxicity, CCK-8 assay; assay type: cell-based; conditions: Homo sapiens, 120 h, two to five days treatment
Experimental: as §1

PC-3 = assay: Chemotherapeutic agent cytotoxicity, CCK-8 assay; assay type: cell-based; conditions: Homo sapiens, 120 h, two to five days treatment
Experimental: as §1

U251 and PC3 cells = conditions: alanine-substituted 9-mers versus native 9-mer
crayfish = assay: Crayfish paralysis assay; assay type: in vivo; conditions: 10-mer peptides
D54MG Glioblastoma cells = conditions: for ^3H-Thymidine uptake ± SD (CPM): 24 hours incubation
Experimental: The purpose of this experiment was to determine if the proliferation D54MG Glioblastoma cells, as measured by ^3H-thymidine uptake, is effected by Peptide 21, a segment of the full chlorotoxin sequence. The sequence of peptide 21 and its relation to chlorotoxin is shown in the sequence below:
D54MG cells were plated in a 24 well plate at 100,000 cells/ml/well using five rows of four wells for each concentration. The cells were allowed to adhere in normal media for twenty-four hours at 37° C. and 5% carbon dioxide. TM-701 was diluted to a […] stock solution and added to each row at the concentrations of 0, 20, 80, 160 and 320 nM.
The cells and peptide 21 were allowed to incubate for 24 hours at 37° C. and 5% carbon dioxide. After twenty-four hours, the cells were rinsed two times with warm PBS. Normal media was added back to the cells at 1 ml/well. One μCi of ^3H-thymidine was added to each well (1 μl of 1 mCi/ml ^3H-thymidine to each well). The plate was incubated for two hours at 37° C. The media and thymidine were removed and the wells were rinsed with ice-cold phosphate-buffered saline three times. To each well was added 1 ml of 0.3 N NaOH. The plate was incubated in the 37° C. incubator for thirty minutes. Each well of 0.3 N NaOH was pipetted up and down three to four times and removed from the plate and the solution was placed in scintillation vials for counting. Scintillation fluid at four times the amount of sample was added to the vials (4 ml). Each vial was counted on the scintillation counter for one minute.

U251 glioma flank tumors = assay: Temodar plus chlorotoxin in glioma flank tumor model; assay type: in vivo, Nude mice; conditions: i.p., temodar 13.2 mg/kg, chlorotoxin 0.080 mg/kg
Experimental: The purpose of this study was to determine whether hydroxyurea or temodar combined with chlorotoxin were sufficient to inhibit tumor growth as indicated from in vitro studies with glioma cell lines. […] Combination treatment with chlorotoxin with hydroxyurea or temodar in mice with glioma flank tumors was compared to the treatment group of hydroxyurea or temodar alone and saline alone. Hydroxyurea and temodar dosage was based on the lowest dosage (10 mg/kg body weight) used in previous studies to determine clearance from the body in the treatment of sickle cell disease paradigm in nude mice (Iyamu et al. (2001) Chemotherapy 47, 270-278). […]
Mice with established flank tumors were each treated with 0.100 ml injection (i.p) of sterilized solutions consisting of either of saline, saline and hydroxyurea or temodar (13.2 mg/kg body weight), or saline, hydroxyurea or temodar (13.2 mg/kg) and chlorotoxin (0.080 mg/kg body weight). Tumor volume was calculated based on the measurements with the same set of calipers on the indicated days by determining the length×width×height of the tumor of non-anesthetized mice. […] Statistical significance was determined according to a one-way ANOVA test.

[2] = PC3 cells, biotinylated peptides
[3] = Homo sapiens, D54MG, 120 h, read-out: IC50
[4] = Homo sapiens, SK-MEL-28, 120 h, read-out: IC50

Compound: TTDQQMTKK [Peptide 21LQ, biotinylated region of probable toxin LQH-8/6 homologous to peptide 21]
- binding [1, 2]: 242.32 % of background levels

Compound: COc1cccc2c1C(=O)c1c(O)c3c(c(O)c1C2=O)C[C@@](O)(C(=O)CO)C[C@@H]3O[C@H]1C[C@H](N)[C@H](O)[C@H](C)O1 [Doxorubicin, hydroxyl daunorubicin]
- IC50 (D54-MG; [3]): 0.06 µg/mL
- IC50 (SKMEL28; [4]): 0.04 µg/mL
- IC50 (U251): 0.03 µg/mL
- IC50 (SKMEL31): 0.035 µg/mL

Compound: N.N.[Cl][Pt][Cl] [Cisplatin, cis-diamminedichloroplatinum]
- IC50 (D54-MG): 10 µg/mL
- IC50 (SKMEL28): 8 µg/mL

Compound: negative peptide (GKCYGPQCLC; Chlorotoxin; listed as Leiurus quinquestriatus)
- binding [1, 2]: 110 % of background levels

Compound: NC(=O)NO [Hydroxyurea, hyroxycarbamide]
- IC50 (PC-3): 35000 µM

Compound: Biotin-TDHAMARKS [Peptide 21a-A4]
- binding of the peptide to cells (U251 and PC3 cells): may be equal to or greater than chlorotoxin itself

Compound: CC(=O)O[C@H]1C(=O)[C@@]2(C)[C@H]([C@H](OC(=O)c3ccccc3)[C@]3(O)C[C@H](OC(=O)[C@H](O)[C@@H](NC(=O)c4ccccc4)c4ccccc4)C(C)=C1C3(C)C)[C@]1(OC(C)=O)CO[C@@H]1C[C@@H]2O [Paclitaxel, paclitaxel]
- IC50 (D54-MG; [3]): 0.0105 µM
- IC50 (U251): 0.008 µM
- IC50 (SKMEL31): 0.025 µM

Compound: O=c1[nH]cc(F)c(=O)[nH]1 [5-Fluorouracil, fluorouracil]
- IC50 (D54-MG; [3]): 1.5 µg/mL

Compound: Biotin-TTDHQMARKS [peptide 21]
- binding [1]: 232.50 % of background levels
- paralysis of crayfish (crayfish): effective
- uptake of ^3H-thymidine, dose dependence (D54MG Glioblastoma cells; 0 to 320 nM): decreases in a does-dependent manner
- ^3H-Thymidine uptake ± SD (CPM) (D54MG Glioblastoma cells; 20 nM): 7795 ± 634 CPM
- ^3H-Thymidine uptake ± SD (CPM) (D54MG Glioblastoma cells; 80 nM): 7412 ± 630 CPM
- ^3H-Thymidine uptake ± SD (CPM) (D54MG Glioblastoma cells; 160 nM): 6983 ± 329 CPM
- ^3H-Thymidine uptake ± SD (CPM) (D54MG Glioblastoma cells; 320 nM): 5782 ± 886 CPM

Compound: Cn1nnc2c(C(N)=O)ncn2c1=O [Temodar, temozomide]
- IC50 (D54-MG; [3]): 120 µM
- IC50 (SKMEL28; [4]): 30 µM
- growth of the xenografted tumor (percent change of tumor volume) (U251 glioma flank tumors): little effect
- IC50 (U251): 150 µM
- IC50 (SKMEL31): 150 µM

Compound: TTDPQMSKK [Peptide 21ST, biotinylated region of small toxin homologous to peptide 21]
- binding [1, 2]: 225.26 % of background levels
